Results published in patent US20070128217A1 (priority 2003, published 2007).

Key:
[1] = system: control sera (pooled serum of ten healthy LUMC hospital workers; commercial negative donor pooled serum from the Dutch bloodbank); format: binding, human; set-up: Binding of Control serum LUMC to linear peptides / Binding of Control serum Blood-bank to linear peptides / Binding of Control serum LUMC to looped peptides / Binding of Control Serum Blood-Bank to Looped peptides / Binding of Control serum LUMC to linear peptides of the protein M of SARS-CoV Urbani / Binding of Control serum Blood-bank to linear peptides of the protein M of SARS-CoV Urbani / Binding of Control serum LUMC to looped peptides of the protein M of SARS-CoV Urbani / Binding of Control Serum Blood-Bank to Looped peptides of the protein M of SARS-CoV Urbani: unit not given here
[2] = system: rabbit serum obtained by immunizing a rabbit with the SARS-CoV strain Frankfurt 1; format: binding; set-up: Binding of a rabbit serum to linear peptides / Binding of a rabbit serum to looped peptides / Rabbit serum linear peptides / Rabbit serum looped peptides / Binding of a rabbit serum to linear peptides of protein N of SARS-CoV Urbani (Rabbit serum linear peptides) / Binding of a rabbit serum to looped/cyclic peptides of protein N of SARS-CoV Urbani (Rabbit serum looped peptides): unit not given here
[3] = system: antibodies in sera from SARS patients (sera 1a, 1b, 2, 6, 37, 62, London, SARS-yellow, SARS-green); format: binding, human; set-up: Binding of serum 6 to linear peptides of protein X1 of SARS-CoV Urbani / Binding of serum 37 to linear peptides of protein X1 of SARS-CoV Urbani / Binding of serum 6 to looped/cyclic peptide (PEPSCAN-ELISA) / Binding of serum 37 to looped/cyclic peptide (PEPSCAN-ELISA) / Binding of serum 37 to looped/cyclic peptides of protein X1 of SARS-CoV Urbani / Binding of serum 6 to linear peptides of protein X2 / Binding of serum 37 to linear peptides of protein X2 / Binding of serum 37 to looped/cyclic peptides of protein X2 of SARS-CoV Urbani / Binding of serum 6 to linear peptides of protein M of SARS-CoV Urbani / Binding of serum 37 to linear peptides of protein M of SARS-CoV Urbani / Binding of serum 6 to looped/cyclic peptides of protein M of SARS-CoV Urbani / Binding of serum 37 to looped/cyclic peptides of protein M of SARS-CoV Urbani / Binding of serum 6 to linear peptides of protein X3 of SARS-CoV Urbani / Binding of serum 37 to linear peptides of protein X3 of SARS-CoV Urbani / Binding of serum 37 to looped/cyclic peptides of protein X3 of SARS-CoV Urbani / Binding of serum 6 to linear peptides of protein X4 of SARS-CoV Urbani / Binding of serum 37 to linear peptides of protein X4 of SARS-CoV Urbani / Binding of serum 37 to looped/cyclic peptides of protein X4 of SARS-CoV Urbani / Binding of serum 6 to linear peptides of protein X5 of SARS-CoV Urbani / Binding of serum 37 to linear peptides of protein X5 of SARS-CoV Urbani / Binding of serum 37 to looped/cyclic peptides of protein X5 of SARS-CoV Urbani / Binding of serum 6 to linear peptides of protein N of SARS-CoV Urbani / Binding of serum 37 to linear peptides of protein N of SARS-CoV Urbani / Binding of serum 6 to linear peptide (PEPSCAN-ELISA) / Binding of serum 1a to looped/cyclic peptides of protein N of SARS-CoV Urbani / Binding of serum 1b to looped/cyclic peptides of protein N of SARS-CoV Urbani / Binding of serum 2 to looped/cyclic peptides of protein N of SARS-CoV Urbani / Binding of serum 6 to looped/cyclic peptides of protein N of SARS-CoV Urbani / Binding of serum 37 to looped/cyclic peptides of protein N of SARS-CoV Urbani / Binding of serum 62 to looped/cyclic peptides of protein N of SARS-CoV Urbani / Binding of serum London to looped/cyclic peptides of protein N of SARS-CoV Urbani / Binding of serum SARS-green to looped/cyclic peptides of protein N of SARS-CoV Urbani: unit not given here

Q: IVVTEGDGISTPKLK was tested. Which “Binding of Control Serum Blood-Bank to Looped peptides” value [1] did it give?
A: 0.3

Q: What about the “Binding of Control serum Blood-bank to linear peptides” value [1] of the same sequence?
A: 0.3

Q: And the “Binding of Control serum LUMC to linear peptides” value [1]?
A: 0.3

Q: What about the “Binding of Control serum LUMC to looped peptides” value [1] of the same sequence?
A: 0.3

Q: What about the “Binding of a rabbit serum to linear peptides” value [2] of the same sequence?
A: 0.1

Q: What about the “Binding of a rabbit serum to looped peptides” value [2] of the same sequence?
A: 0.4

Q: And the “Binding of serum 1a to linear peptides of protein X1 of SARS-CoV Urbani” value [3]?
A: 0.5

Q: And the “Binding of serum 1a to looped/cyclic peptides of protein X1 of SARS-CoV Urbani” value [3]?
A: 0.3

Q: And the “Binding of serum 1b to linear peptides of protein X1 of SARS-CoV Urbani” value [3]?
A: 0.5

Q: What about the “Binding of serum 1b to looped/cyclic peptides of protein X1 of SARS-CoV Urbani” value [3] of the same sequence?
A: 0.2

Q: And the “Binding of serum 2 to linear peptides of protein X1 of SARS-CoV Urbani” value [3]?
A: 0.3

Q: What about the “Binding of serum 2 to looped/cyclic peptides of protein X1 of SARS-CoV Urbani” value [3] of the same sequence?
A: 0.1

Q: What about the “Binding of serum 6 to linear peptides of protein X1 of SARS-CoV Urbani” value [3] of the same sequence?
A: 0.4

Q: And the “Binding of serum 6 to looped/cyclic peptides of protein X1 of SARS-CoV Urbani” value [3]?
A: 0.1

Q: And the “Binding of serum 37 to linear peptides of protein X1 of SARS-CoV Urbani” value [3]?
A: 0.5

Q: What about the “Binding of serum 37 to looped/cyclic peptides of protein X1 of SARS-CoV Urbani” value [3] of the same sequence?
A: 0.2

Q: What about the “Binding of serum 62 to linear peptides of protein X1 of SARS-CoV Urbani” value [3] of the same sequence?
A: 0.3

Q: And the “Binding of serum 62 to looped/cyclic peptides of protein X1 of SARS-CoV Urbani” value [3]?
A: 0.3

Q: What about the “Binding of serum London to linear peptides of protein X1 of SARS-CoV Urbani” value [3] of the same sequence?
A: 0.2

Q: And the “Binding of serum London to looped/cyclic peptides of protein X1 of SARS-CoV Urbani” value [3]?
A: 0.1

Q: What about the “Binding of serum SARS-green to linear peptides of protein X1 of SARS-CoV Urbani” value [3] of the same sequence?
A: 0.1

Q: What about the “Binding of serum SARS-green to looped/cyclic peptides of protein X1 of SARS-CoV Urbani” value [3] of the same sequence?
A: 0.0

Q: What about the “Binding of serum SARS-yellow to linear peptides of protein X1 of SARS-CoV Urbani” value [3] of the same sequence?
A: 0.1

Q: What about the “Binding of serum SARS-yellow to looped/cyclic peptides of protein X1 of SARS-CoV Urbani” value [3] of the same sequence?
A: 0.1

Q: With IYFLQCINACRIIMR as the sequence, how does the “Binding of Control Serum Blood-Bank to Looped peptides” value [1] read?
A: 0.6

Q: And the “Binding of Control serum Blood-bank to linear peptides” value [1]?
A: 0.7

Q: And the “Binding of Control serum LUMC to linear peptides” value [1]?
A: 0.7

Q: What about the “Binding of Control serum LUMC to looped peptides” value [1] of the same sequence?
A: 0.6

Q: And the “Binding of a rabbit serum to linear peptides” value [2]?
A: 0.5

Q: What about the “Binding of a rabbit serum to looped peptides” value [2] of the same sequence?
A: 0.9

Q: What about the “Binding of serum 1a to linear peptides of protein X1 of SARS-CoV Urbani” value [3] of the same sequence?
A: 0.7

Q: And the “Binding of serum 1a to looped/cyclic peptide (PEPSCAN-ELISA)” value [3]?
A: 0.6

Q: And the “Binding of serum 1b to linear peptides of protein X1 of SARS-CoV Urbani” value [3]?
A: 0.6

Q: What about the “Binding of serum 1b to looped/cyclic peptide (PEPSCAN-ELISA)” value [3] of the same sequence?
A: 0.4

Q: And the “Binding of serum 2 to linear peptides of protein X1 of SARS-CoV Urbani” value [3]?
A: 0.6

Q: And the “Binding of serum 2 to looped/cyclic peptide (PEPSCAN-ELISA)” value [3]?
A: 0.8

Q: What about the “Binding of serum 6 to linear peptides of protein X1 of SARS-CoV Urbani” value [3] of the same sequence?
A: 0.5

Q: And the “Binding of serum 6 to looped/cyclic peptide (PEPSCAN-ELISA)” value [3]?
A: 1.0

Q: And the “Binding of serum 37 to linear peptides of protein X1 of SARS-CoV Urbani” value [3]?
A: 0.7

Q: What about the “Binding of serum 37 to looped/cyclic peptide (PEPSCAN-ELISA)” value [3] of the same sequence?
A: 0.6

Q: What about the “Binding of serum 62 to linear peptides of protein X1 of SARS-CoV Urbani” value [3] of the same sequence?
A: 0.7

Q: What about the “Binding of serum 62 to looped/cyclic peptide (PEPSCAN-ELISA)” value [3] of the same sequence?
A: 0.7

Q: What about the “Binding of serum London to linear peptides of protein X1 of SARS-CoV Urbani” value [3] of the same sequence?
A: 0.3

Q: What about the “Binding of serum London to looped/cyclic peptide (PEPSCAN-ELISA)” value [3] of the same sequence?
A: 1.6

Q: What about the “Binding of serum SARS-green to linear peptides of protein X1 of SARS-CoV Urbani” value [3] of the same sequence?
A: 0.2

Q: And the “Binding of serum SARS-green to looped/cyclic peptide (PEPSCAN-ELISA)” value [3]?
A: 0.2

Q: What about the “Binding of serum SARS-yellow to linear peptides of protein X1 of SARS-CoV Urbani” value [3] of the same sequence?
A: 0.5

Q: What about the “Binding of serum SARS-yellow to looped/cyclic peptide (PEPSCAN-ELISA)” value [3] of the same sequence?
A: 0.6

Q: For KDLPKEITVATSRTL, which “Binding of Control Serum Blood-Bank to Looped peptides of the protein M of SARS-CoV Urbani” value [1] is on record?
A: 0.6

Q: What about the “Binding of Control serum Blood-bank to linear peptides of the protein M of SARS-CoV Urbani” value [1] of the same sequence?
A: 0.7

Q: And the “Binding of Control serum LUMC to linear peptides of the protein M of SARS-CoV Urbani” value [1]?
A: 0.6

Q: What about the “Binding of Control serum LUMC to looped peptides of the protein M of SARS-CoV Urbani” value [1] of the same sequence?
A: 0.8

Q: What about the “Rabbit serum linear peptides” value [2] of the same sequence?
A: 0.2

Q: And the “Rabbit serum looped peptides” value [2]?
A: 0.3

Q: And the “Binding of serum 1a to linear peptides of protein M of SARS-CoV Urbani” value [3]?
A: 0.7

Q: And the “Binding of serum 1a to looped/cyclic peptides of protein M of SARS-CoV Urbani” value [3]?
A: 0.6

Q: And the “Binding of serum 1b to linear peptides of protein M of SARS-CoV Urbani” value [3]?
A: 0.6

Q: What about the “Binding of serum 1b to looped/cyclic peptides of protein M of SARS-CoV Urbani” value [3] of the same sequence?
A: 0.6

Q: And the “Binding of serum 2 to linear peptides of protein M of SARS-CoV Urbani” value [3]?
A: 0.6

Q: What about the “Binding of serum 2 to looped/cyclic peptides of protein M of SARS-CoV Urbani” value [3] of the same sequence?
A: 0.7

Q: And the “Binding of serum 6 to linear peptides of protein M of SARS-CoV Urbani” value [3]?
A: 0.5

Q: What about the “Binding of serum 6 to looped/cyclic peptides of protein M of SARS-CoV Urbani” value [3] of the same sequence?
A: 1.1

Q: What about the “Binding of serum 37 to linear peptides of protein M of SARS-CoV Urbani” value [3] of the same sequence?
A: 0.5

Q: What about the “Binding of serum 37 to looped/cyclic peptides of protein M of SARS-CoV Urbani” value [3] of the same sequence?
A: 0.6

Q: What about the “Binding of serum 62 to linear peptides of protein M of SARS-CoV Urbani” value [3] of the same sequence?
A: 0.5

Q: What about the “Binding of serum 62 to looped/cyclic peptides of protein M of SARS-CoV Urbani” value [3] of the same sequence?
A: 0.6

Q: And the “Binding of serum London to linear peptides of protein M of SARS-CoV Urbani” value [3]?
A: 0.3

Q: What about the “Binding of serum London to looped/cyclic peptides of protein M of SARS-CoV Urbani” value [3] of the same sequence?
A: 1.1

Q: What about the “Binding of serum SARS-green to linear peptides of protein M of SARS-CoV Urbani” value [3] of the same sequence?
A: 0.5

Q: And the “Binding of serum SARS-green to looped/cyclic peptides of protein M of SARS-CoV Urbani” value [3]?
A: 0.3

Q: What about the “Binding of serum SARS-yellow to linear peptides of protein M of SARS-CoV Urbani” value [3] of the same sequence?
A: 0.2

Q: What about the “Binding of serum SARS-yellow to looped/cyclic peptides of protein M of SARS-CoV Urbani” value [3] of the same sequence?
A: 0.9
